Measured values: patent US20260137081A1, “SUBSTITUTED FURANONES AND USE THEREOF FOR AGRICULTURAL APPLICATIONS” (SOUND AGRICULTURE COMPANY, priority 2021, published 2026)

Key:
Format in all cases: in vivo
[1] = tested on: corn; assay: Corn field trials, grain yield; settings: field trials in Illinois and Iowa; applied once in late June; vs untreated control
Description: The total amount of Compound 1 applied to each plot ranged from about 5 g/acre to about 20 g/acre.
Corn field trials were performed in Illinois and Iowa. In each trial, individual plots measured 10 feet by 30 feet and each treatment (application of Compound 1 or untreated control) was replicated across 4 plots in a randomized complete block design. Agronomic practices were maintained under standard commercial conditions and products used for weed, insect, and disease control. The Walnut, Illinois trial site was planted in mid-May and harvested in early October. The Richland, Iowa site was planted in late April and harvested in late September. Compound 1 was applied to both sites once in late June. Grain weight and grain moisture were measured for each plot at harvest, data is reported as bushels per acre normalized to 13% moisture content.

[2] = tested on: corn plants; assay: Greenhouse foliar application, gas exchange with LI-COR 6800 (carbon assimilation, transpiration, stomatal conductance); settings: 0.8 fl. oz rate; 2 and 24 hour time points; compared to the mock
Description: Greenhouse application of Compound 1: Corn plants were grown in a greenhouse for 9 weeks (V5) prior to treatment. Eight plants were treated with a mock solution (formulation blank), low rate (0.8 fl. oz) or medium rate (1.7 fl. oz). The low rate and medium rate refer to the volume of the Compound 1 containing solution that is applied to 1 acre of corn plants, and roughly equates to 5 grams of Compound 1 per acre for low rate and about 10 grams of Compound 1 per acre for medium rate. The foliar blends were prepared by mixing the formula concentrations into water followed by vigorous mixing. To mimic a foliar application in a corn field (using a spray boom), a uniform coating of the entire plant was carried out (FIG. 2) using a hand-held spray bottle. Following application, the plants were separated to avoid cross contamination (aerosol drift) and allowed to dry. Measurement of carbon assimilation: Assessment of the effects of Compound 1 on photosynthesis in corn plants, tobacco plants, and soybean plants was performed using a LI-COR 6800 fluorimeter, which measured net carbon assimilation (Anet), transpiration (E) and stomatal conductance (gsw). The youngest fully expanded leaf with a fully formed ligule was used from each plant for sampling. A single sample (biological representative) consisted of averaging the readings from three technical representatives adjacent to each other on each sampled leaf. Each treatment consisted of eight biological representatives (N=8). Photobiology measurements were taken at 2 and 24 hour time points, post application.

[3] = tested on: Corn (Syngenta Agrisure Artesian); assay: Cool Grow Procedure Two (foliar spray of DC formulation vs formulation blank)
Description: Corn (Syngenta Agrisure Artesian, Basel, Switzerland) seeds (n=2) were planted in 24 four inch pots containing Sunshine soil #1 (Sun Gro, Agawam, MA) mixed with ⅛ tbsp of 14-14-14 osmocote N—P—K (Bloomington Brands LLC, Bloomington, IN) slow-release fertilizer and Micromax (ICL Specialty Fertilizers) (lg/L). Pots were placed on plant holder trays (11×22 in) with three pots per tray and were set-up in a 4×4 ft Cool Grow tent (capacity: 35 one liter pots) with temperature set at 24° C. and light at 345 μmoL for 12 hours day and night. Upon emergence, one seedling was culled leaving only one plant per pot. Plants were fertilized weekly thereafter starting one week after germination with 20-20-20 NPK (1 tsp/gallon) (Bloomington Brands LLC, Bloomington, IN) applied at ˜800-1000 mL per tray.
At V2-3 stage (14 days after seeding), each plant was sprayed with 7.5 mL of the following formulations: formulation blank DC (12 plants total; Agnique® AMD 3L (N,N-dimethyl lactamide)); Compound 1 DC formulation (9.86 μL of DC formulation from Example 5 dissolved in 50 mL of water). After 90 minutes following spray treatment, photosynthetic measurements were made using Licor. Digital biomass and NDVI measurements were made 21 days after seeding by a PlantEye F600Multispectral 3D scanner (Phenospex, Netherlands) and plants were harvested at 27 days after seeding.

[4] = tested on: corn plants; assay: Chlorophyll fluorescence with LI-COR 6800 after foliar application; settings: for minimal fluorescence Fo / maximum fluorescence (Fm): dark-adapted; for light-adapted quantum efficiency of PSII (Fv′/Fm′): in comparison to the mock
Description: Greenhouse application of Compound 1: Corn plants were grown in a greenhouse for 9 weeks (V5) prior to treatment. […] The foliar blends were prepared by mixing the formula concentrations into water followed by vigorous mixing. To mimic a foliar application in a corn field (using a spray boom), a uniform coating of the entire plant was carried out (FIG. 2) using a hand-held spray bottle. Following application, the plants were separated to avoid cross contamination (aerosol drift) and allowed to dry. Measurement of chlorophyll fluorescence: Chlorophyll fluorescence measurements were determined 4 hrs and 24 hrs after treatment using a LI-COR 6800 fluorimeter (LI-COR Biosciences; Lincoln, Nebraska). Corn plants were dark-adapted 60-90 min prior to measurement and the youngest fully expanded leaf with a fully formed ligule was used for the measurement. Minimal fluorescence levels in the dark (Fo) and light (Fo′) were recorded by applying a measuring light of 12 μmol photons m^−2 s^−1. Maximum fluorescence levels in the dark (Fm) and light (Fm′) were recorded by applying a saturating pulse of light at 10,000 μmol photons m^−2 s^−1. Maximum quantum efficiency of PSII in the dark (Fv/Fm) and light (Fv′/Fm′) were calculated as (Fm−Fo/Fm) using their respective dark or light-adapted values. NPQ induction was measured after a 5 minute exposure to an actinic light source at 1,000 μmol photons m^−2 s^−1 and calculated as (Fm−Fm′/Fm′).

COC1=C(OC)[C@@H]([C@@H]2COC(C)(C)O2)OC1=O [Compound 1, (5R)-5-(2,2-dimethyl-1,3-dioxolan-4-yl)-3,4-dimethoxyfuran-2(5H)-one]
Corn yield [1]: Increases | CO2 assimilation (Anet) [2]: elevated | stomatal conductance (gsw) [2]: elevated | transpiration (E) [2]: elevated | NDVI ([3]; 21 days after seeding, formulation blank DC 0.558, p<0.05): 0.569 | mean shoot dry weight ([3]; harvest 27 days after seeding, formulation blank DC 3.16, p<0.1): 3.62 g | light-adapted Fm′ ([4]; 24 hrs post application): not higher | dark-adapted quantum efficiency of PSII (Fv/Fm) ([4]; both rates, after 24 hrs): higher | minimal fluorescence Fo ([4]; high rate, 4 hrs post foliar application, vs low rate and mock control): lower | maximum fluorescence (Fm) ([4]; high rate, both timepoints (4 and 24 hrs)): higher | minimal fluorescence Fo ([4]; low and high rates, after 24 hrs, vs mock control): lower compared to the mock control | maximum fluorescence (Fm) ([4]; low rate, after 24 hrs): higher | light-adapted quantum efficiency of PSII (Fv′/Fm′) ([4]; high rate, 4 hrs post application): higher | dark-adapted quantum efficiency of PSII (Fv/Fm) ([4]; high rate, after 4 hrs): higher | light-adapted quantum efficiency of PSII (Fv′/Fm′) ([4]; low rate, 24 hrs post application): higher | light-adapted Fm′ ([4]; the two rates, 4 hrs post application): similarly higher
